Assay results published in PubChem BioAssay (NCI).
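Method: 48-hour compound exposure of cells in 96-well plates, five concentrations, linear interpolation of endpoints. GI50 = concentration required for 50% inhibition of growth. The concentration for full growth arrest is given as TGI.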

How the values were obtained:
Assay in all cases: NCI-60 cell line screen, 48 h
[1] = tested on: SF-268 CNS
[2] = tested on: A498 renal
[3] = tested on: HT29 colon
[4] = tested on: NCI-H522 lung
[5] = tested on: SNB-75 CNS
[6] = tested on: OVCAR-8 ovarian
[7] = tested on: HOP-92 NSCLC
[8] = tested on: RXF 393 renal
[9] = tested on: LOX IMVI melanoma
[10] = tested on: SK-MEL-5 melanoma

SMILES	GI50 [1]	TGI [1]	GI50 [2]	TGI [2]	GI50 [3]	TGI [3]	GI50 [4]	TGI [4]	GI50 [5]	TGI [5]	GI50 [6]	TGI [6]	GI50 [7]	TGI [7]	GI50 [8]	TGI [8]	GI50 [9]	TGI [9]	GI50 [10]	TGI [10]
COc1cc2c3c(n(C)c(=O)c2cc1OC)-c1cc2c(cc1/C3=C\[C@@H](N)CCCCN)OCO2	1.86 µM	> 42 µM	5.14 µM	33.9 µM	0.337 µM	> 100 µM	1.37 µM	> 23.2 µM	0.985 µM	> 41.3 µM	2.66 µM	> 45.8 µM	1.7 µM	29.4 µM	12.7 µM	> 50.9 µM	0.298 µM	3.9 µM	–	–
CN(C)CCCC(=O)Nc1ccc(Cn2nnc3c2C(=O)c2nnn(Cc4ccc(NC(=O)CCCN(C)C)cc4)c2C3=O)cc1	3.29 µM	12.8 µM	16 µM	45.3 µM	3.22 µM	7.87 µM	2.15 µM	5.06 µM	1.69 µM	3.06 µM	5.25 µM	29.3 µM	2.51 µM	5.82 µM	5 µM	21.6 µM	2.22 µM	5.62 µM	1.48 µM	2.84 µM
Cc1ccc([Se][Se]c2ccc(C)cc2)cc1	–	88.1 µM	–	> 100 µM	–	> 100 µM	–	16.3 µM	–	42.2 µM	–	> 100 µM	–	22.3 µM	–	> 100 µM	–	18.9 µM	–	39.6 µM
COc1cccc2c(Nc3ccc(C(=O)NCCN(C)C)cc3)cc(-c3ccccc3)nc12	–	–	17.2 µM	32 µM	28.5 µM	> 100 µM	16.6 µM	32.4 µM	29.5 µM	66 µM	17.3 µM	42.7 µM	0.832 µM	8.86 µM	5.12 µM	19.7 µM	18.1 µM	33.9 µM	17.3 µM	32.1 µM
C1C[OH+]CC[OH+]CC[OH+]CC[OH+]CC[OH+]CC[OH+]1.[Cl-].[Ta+5]	> 100 µM	> 100 µM	> 100 µM	> 100 µM	> 100 µM	> 100 µM	> 100 µM	> 100 µM	23.8 µM	> 100 µM	> 100 µM	> 100 µM	> 100 µM	> 100 µM	> 100 µM	> 100 µM	> 100 µM	> 100 µM	> 100 µM	> 100 µM
CC1=C(c2cc(C(=O)Nc3cccc(C(F)(F)F)c3)nc(NC#N)n2)Sc2ccccc2N1	–	> 100 µM	–	> 100 µM	–	> 100 µM	–	–	–	> 100 µM	–	–	–	> 100 µM	–	> 100 µM	–	> 100 µM	–	> 100 µM
O=C(/C=C/c1ccc(Cl)cc1)c1ccncc1	–	> 100 µM	–	88.7 µM	–	44.4 µM	–	> 100 µM	–	83.6 µM	–	> 100 µM	–	> 100 µM	–	88.8 µM	–	73.6 µM	–	> 100 µM
COc1ccc(-c2[nH]ncc2-c2cc(OC)c(OC)c(OC)c2)cc1	< 0.0127 µM	> 38.1 µM	< 0.01 µM	< 0.0127 µM	< 0.01 µM	0.0326 µM	< 0.01 µM	< 0.01 µM	< 0.01 µM	21 µM	< 0.0124 µM	> 33.2 µM	< 0.01 µM	0.901 µM	< 0.01 µM	17.8 µM	< 0.01 µM	44.4 µM	< 0.01 µM	0.0551 µM
COc1ccc2c(c1)C(=O)c1c-2n(CCCCl)c(=O)c2cc(N(C)C)ccc12	33.3 µM	> 100 µM	95.6 µM	> 100 µM	> 100 µM	> 100 µM	18.9 µM	> 100 µM	21.3 µM	69.2 µM	42.5 µM	> 100 µM	3.42 µM	23.4 µM	25.5 µM	90.7 µM	99.1 µM	> 100 µM	11.2 µM	34.6 µM
CC1(C)CC[C@]2(C(=O)O)CC[C@]3(C)[C@H](CC[C@@H]4[C@@]5(C)CCC(=O)C(C)(C)[C@@H]5CC[C@]43C)[C@H]2[C@H]1OC(=O)C(F)(F)F	15.3 µM	33.6 µM	15.7 µM	30.9 µM	4.06 µM	16.7 µM	12.6 µM	29.1 µM	26.4 µM	> 100 µM	12.9 µM	30.1 µM	8.08 µM	22.6 µM	11.1 µM	23.8 µM	5.91 µM	18.9 µM	8.11 µM	20.6 µM
CN1CCN(c2cc(Nc3cc(C4CC4)[nH]n3)nc(Nc3ccc(CC(=O)NCc4cccc(F)c4)cc3)n2)CC1	1.23 µM	12.3 µM	0.143 µM	0.967 µM	0.379 µM	11.6 µM	1.53 µM	7.08 µM	0.168 µM	0.778 µM	2.18 µM	30.1 µM	0.288 µM	4.8 µM	0.404 µM	1.71 µM	0.219 µM	1.48 µM	1.42 µM	3.08 µM
COC(=O)[C@H](Cc1ccccc1)NC(=O)[C@@H](OC)[C@@H]1Cc2cc3cc(OC4CC(OC5CC(O)C(O)C(C)O5)C(O)C(C)O4)c(C)c(O)c3c(O)c2C(=O)[C@H]1OC1CC(OC2CC(OC3CC(C)(O)C(O)C(C)O3)C(O)C(C)O2)C(O)C(C)O1 (stereo partly drawn)	0.0298 µM	2.24 µM	0.024 µM	0.0626 µM	0.0268 µM	> 14.3 µM	0.0064 µM	1.72 µM	0.0186 µM	0.0575 µM	0.0108 µM	> 14.3 µM	0.00451 µM	0.202 µM	0.0046 µM	0.0252 µM	–	–	0.00691 µM	0.0357 µM
OC(C(=Nc1ccccc1)c1ccccc1)c1ccccc1 (stereo not drawn)	–	17.4 µM	–	33.6 µM	–	25.6 µM	–	18.9 µM	–	25.4 µM	–	–	–	21 µM	–	26.1 µM	–	38.2 µM	–	5.87 µM
Cc1nn(C)c(=O)c2nn(-c3ccccc3)c(C)c12	–	> 100 µM	–	> 100 µM	–	> 100 µM	–	> 100 µM	–	> 100 µM	–	> 100 µM	–	–	–	> 100 µM	–	> 100 µM	–	> 100 µM
C=CCNC(=S)OCCCCCCCCCC	–	33.6 µM	–	33.3 µM	–	32.5 µM	–	–	–	49.8 µM	–	31.2 µM	–	–	–	29.1 µM	–	26.9 µM	–	30.5 µM
COP1(=S)OCC2CCC[C@@H]2O1 (stereo partly drawn)	–	> 100 µM	–	> 100 µM	–	> 100 µM	–	> 100 µM	–	> 100 µM	–	> 100 µM	–	> 100 µM	–	> 100 µM	–	–	–	> 100 µM
C=C1CO[C@@H]2C[C@@H]1CCC1(C)OC1CC/C(C)=C/CC[C@@]2(C)O (stereo partly drawn)	48.6 µM	> 100 µM	> 79.1 µM	> 100 µM	24.5 µM	> 71 µM	30.5 µM	> 76.9 µM	21.7 µM	97.4 µM	39.8 µM	> 100 µM	36.4 µM	> 100 µM	23.6 µM	64.1 µM	7.55 µM	21.4 µM	15.4 µM	29.4 µM
CC(C)CC(=O)CC(O)C(Cl)(Cl)Cl (stereo not drawn)	–	–	–	> 100 µM	–	> 100 µM	–	> 100 µM	–	> 100 µM	–	> 100 µM	–	–	–	> 100 µM	–	> 100 µM	–	> 100 µM
O=C(Nc1ccccc1F)c1ccc(NC2=C(Cl)C(=O)N(Cc3ccccc3)C2=O)cc1	2 µM	5.2 µM	16.6 µM	30.2 µM	4.18 µM	13.5 µM	2.21 µM	5.34 µM	16.5 µM	30 µM	2.84 µM	7.86 µM	1.91 µM	5.03 µM	5.09 µM	16.6 µM	2.35 µM	5.9 µM	4.41 µM	16.2 µM
CCc1cccc(C(C)CC)c1NC(=O)CC1C(=O)Nc2ccccc2S1=O (stereo not drawn)	–	> 100 µM	–	> 100 µM	–	55.1 µM	–	–	–	49.4 µM	–	> 100 µM	–	46.3 µM	–	46.1 µM	–	73.7 µM	–	> 100 µM
COC(=O)[C@]12CC[C@@H](C)[C@H](C)[C@@H]1C1=CC[C@@H]3[C@@]4(C)C=C(O)C(=O)C(C)=C4CC[C@@]3(C)[C@]1(C)CC2	15.2 µM	35.1 µM	19.5 µM	34.1 µM	9.35 µM	23 µM	3.92 µM	14.7 µM	13.9 µM	31.3 µM	16.9 µM	39.4 µM	11.6 µM	26.2 µM	12.1 µM	27.9 µM	13 µM	27.4 µM	15.4 µM	28.8 µM
COc1ccc(C(=O)N/N=C/c2ccc(O)cc2O)cc1Nc1ccnc(C(F)(F)F)c1	0.299 µM	16.7 µM	0.193 µM	9.33 µM	3.6 µM	> 69.2 µM	3.22 µM	27.3 µM	2.22 µM	49.8 µM	0.919 µM	> 71.2 µM	0.347 µM	8.43 µM	3.3 µM	15.7 µM	0.454 µM	16.4 µM	0.534 µM	5.03 µM
O=C1C=C(Nc2nc(C(=O)O)cc(=O)[nH]2)c2ccccc2C1=O	–	> 100 µM	–	> 100 µM	–	> 100 µM	–	> 100 µM	–	> 100 µM	–	> 100 µM	–	> 100 µM	–	> 100 µM	–	> 100 µM	–	> 100 µM
C[C@@]12CCC[C@@](C)(C(=O)O)C1CC[C@@]13CC(=O)[C@@](CO)(CCC12)C3 (stereo partly drawn)	> 100 µM	> 100 µM	> 100 µM	> 100 µM	> 100 µM	> 100 µM	> 100 µM	> 100 µM	> 100 µM	> 100 µM	> 100 µM	> 100 µM	> 100 µM	> 100 µM	> 100 µM	> 100 µM	> 100 µM	> 100 µM	> 100 µM	> 100 µM
CC(C)[C@@H](CS(=O)(=O)C(C)C)N1C(=O)[C@@](C)(CC(=O)O)C[C@H](c2cccc(Cl)c2)[C@H]1c1ccc(Cl)cc1	20.8 µM	> 100 µM	0.537 µM	16.8 µM	26.6 µM	> 90.1 µM	17.8 µM	51.5 µM	12.2 µM	> 85.8 µM	13.5 µM	> 100 µM	12.9 µM	36.3 µM	19.5 µM	67 µM	0.485 µM	21 µM	1.96 µM	17.2 µM
Nc1c(O)c(S(=O)(=O)O)c(O)c2c1C(=O)c1ccccc1C2=O	3.44 µM	> 100 µM	2.33 µM	7.53 µM	2.72 µM	10.4 µM	2.68 µM	9.17 µM	–	–	2.98 µM	13.4 µM	1.5 µM	4.65 µM	3.37 µM	> 100 µM	3.08 µM	12.3 µM	1.97 µM	4.07 µM
Cc1nn(C)c(=S)n(C)c1=O	–	> 100 µM	–	37.7 µM	–	> 100 µM	–	0.822 µM	–	2.73 µM	–	27.3 µM	–	1.42 µM	–	7.33 µM	–	> 100 µM	–	–
C=C1C(=O)O[C@H]2[C@H]1CC(=O)/C(C)=C\CC[C@@]1(C)O[C@@H]21	4.15 µg/mL	9.58 µg/mL	5.55 µg/mL	11.3 µg/mL	1.29 µg/mL	4.32 µg/mL	0.411 µg/mL	0.957 µg/mL	4.93 µg/mL	9.57 µg/mL	3.98 µg/mL	7.81 µg/mL	1.94 µg/mL	4.32 µg/mL	2.95 µg/mL	9.41 µg/mL	–	–	2.99 µg/mL	8.73 µg/mL
N#Cc1ccc2oc3ccc(C#N)cc3c(=O)c2c1	–	69.1 µM	–	28.9 µM	–	40.1 µM	–	> 100 µM	–	58.6 µM	–	> 100 µM	–	> 100 µM	–	42.8 µM	–	–	–	17.6 µM
